Test results reported in US10857167B2, “Use of oligosaccharide compositions to enhance weight gain” (Children's Hospital Medical Center, priority 2015, dated 2020).

Tested on: distal small bowel gene expression
Assay: RNA sequencing / transcriptional analysis of small bowel 56 days after ICR (2′-FL signature response)
Type: in vivo, mouse
Source text: Luminal small bowel contents were expressed into AllProtect Tissue Reagent (Qiagen Inc, CA). Bacterial DNA was extracted using the AllPrep DNA/RNA Mini Kit (Qiagen Inc, CA), according to kit instructions and prior to sequencing (described below). Small bowel tissue samples for RNA were placed into RNA Later (Life Technologies, NY). RNA extraction was accomplished following Qiagen RNeasy Plus Kit instruction (Qiagen Inc, CA). All nucleic acid samples were then stored at -80 Celsius until sequenced (described below). Transcriptional analysis was carried out on resected and harvested small bowel samples obtained from operated mice taken to 8 weeks. Murine RNA sequencing libraries were prepared from approximately 1.5 μg RNA using the TruSeq RNA Sample Preparation Kit (Illumina, Calif.) and sequenced using the HiSeq 2000 Sequencing System (Illumina, Calif.) with single-end 50 bp reads. Following removal of primers and barcodes, sequences were aligned to the mm10 genome using reference annotations from UCSC (Rosenbloom et al. (2015) Nucleic acids research 43: […]-681) (n=36,186 entities). Aligned reads were quantified and used to compute reads per kilobase per million mapped reads (RPKM); raw counts were then normalized using the DESeq algorithm and each harvested sample was baselined to its own resected sample. A filter was applied to the data, requiring at least three reads in all samples of at least one of the four experimental conditions (n=14,489 entities). The data discussed in this publication have been deposited in NCBI's Gene Expression Omnibus and are accessible through NCBI Gene Expression Omnibus (GEO) Series accession number GSE72590. Edgar et al. (2002) Nucleic acids research 30: 207-210. In order to characterize the impact of 2'-FL supplementation while accounting for the effect of ileoecal resection, a t-test was applied between resected and harvested samples within control and experimental animals. Significance was set at a p-value of ≤0.05 and a fold change of 3, which generated 2,576 differentially regulated entities across two comparisons. Gene set unions and intersections of the control and experimental gene sets were identified through Venn diagrams. From the master list, the gene list specific to animals supplemented with 2'-FL were removed in order to identify genes differentially regulated only by ICR (n=546 entities); this gene set characterizes the adaptive response. Further, the 2'-FL response (n=2,030 entities) was identified by removing the adaptive response signature described above from the master list, leaving only genes regulated by 2'-FL supplementation after ICR which were not found in the non-supplemented adaptive response. Heatmaps were generated using hierarchical clustering with the Pearson's Centered distance metric and the average linkage rule; both entities and samples were clustered. All genomic analyses described above were performed in Strand NGS (Strand Life Sciences, CA). Gene list functional enrichment was initially discovered using ToppFun, a member of the ToppGene Suite. Chen et al. (2009) Nucleic acids research 37: […]-311. No statistical correction was selected. Gene lists were further analyzed using ClueGO, a plugin for Cytoscape designed to decipher functionally grouped gene ontology and pathway annotation networks. Bindea et al. (2009) Bioinformatics 25: 1091-1093. At the time of data analysis, the annotation files were updated from sources to Jan. 1, 2015. “GO Term Fusion” was enabled to manage ontologic term redundancy and network specificity was set to medium. Results were restricted to pathways with p≤0.05 using Benjamini-Hochberg correction and Kappa scoring was set to 0.4. Biocyc annotations were assigned a rectangle, gene ontology biologic processes were assigned an ellipse, and […] annotations were assigned a diamond shape. No meaning was assigned to size or color. […]

[1] = 2′-FL signature response, harvested vs resected small bowel, 8 weeks

## C[C@@H]1O[C@@H](O[C@H]2[C@H](O[C@H]3[C@H](O)[C@@H](O)C(O)O[C@@H]3CO)O[C@H](CO)[C@H](O)[C@@H]2O)[C@@H](O)[C@H](O)[C@@H]1O (stereo partly drawn) [2′-FL, 2′-fucosyllactose]
[1]
  Fgf15 fold change (FC): −64.6
  Fmr1nb fold change (FC): 12.7
  Hemt1 fold change (FC): 15.4
  Irs2 fold change (FC): −43.6
  Map3k12 fold change (FC): 16.2
  Mcpt2 fold change (FC): 13.4
  P2ry4 fold change (FC): −22.2
  Rnf150 fold change (FC): −20.4
  Tmem202 fold change (FC): 18.0
  Ttc28 fold change (FC): −24.2
0610040B10Rik
  Fold Change (Pre- to Post-op): 4.168
1700019L03Rik
  Fold Change (Pre- to Post-op): 4.251
1700020N01Rik
  Fold Change (Pre- to Post-op): 4.446
1810011O10Rik
  Fold Change (Pre- to Post-op): 4.443
1810059H22Rik
  Fold Change (Pre- to Post-op): 4.23
2010308F09Rik
  Fold Change (Pre- to Post-op): 14.34
3300005D01Rik
  Fold Change (Pre- to Post-op): 4.41
9430038I01Rik
  Fold Change (Pre- to Post-op): 6.474
Atp5j2
  Fold Change (Pre- to Post-op): 4.445
Atpif1
  Fold Change (Pre- to Post-op): 4.145
Bambi-ps1
  Fold Change (Pre- to Post-op): 4.353
Casq1
  Fold Change (Pre- to Post-op): 4.38
Cd320
  Fold Change (Pre- to Post-op): 4.215
Coa4
  Fold Change (Pre- to Post-op): 4.375
Cox7a1
  Fold Change (Pre- to Post-op): 6.411
Dgcr6
  Fold Change (Pre- to Post-op): 4.237
Dnah2
  Fold Change (Pre- to Post-op): 4.392
Dynlt1b
  Fold Change (Pre- to Post-op): 4.376
Dynlt1c
  Fold Change (Pre- to Post-op): 4.148
Elof1
  Fold Change (Pre- to Post-op): 4.343
Fam216a
  Fold Change (Pre- to Post-op): 4.147
Gm5485
  Fold Change (Pre- to Post-op): 4.139
Gm6251
  Fold Change (Pre- to Post-op): 4.383
Gm8274
  Fold Change (Pre- to Post-op): 4.331
Gm10433
  Fold Change (Pre- to Post-op): 4.377
Gm10451
  Fold Change (Pre- to Post-op): 4.182
Hemt1
  Fold Change (Pre- to Post-op): 15.36
Hint1
  Fold Change (Pre- to Post-op): 4.482
Hscb
  Fold Change (Pre- to Post-op): 4.227
Hspb2
  Fold Change (Pre- to Post-op): 4.189
Ift20
  Fold Change (Pre- to Post-op): 4.337
Med11
  Fold Change (Pre- to Post-op): 4.235
Mpc2
  Fold Change (Pre- to Post-op): 4.128
Ndufa7
  Fold Change (Pre- to Post-op): 4.362
Ndufaf5
  Fold Change (Pre- to Post-op): 4.338
Ndufb7
  Fold Change (Pre- to Post-op): 4.217
Oaz1
  Fold Change (Pre- to Post-op): 4.347
Ormdl1
  Fold Change (Pre- to Post-op): 4.184
Pstk
  Fold Change (Pre- to Post-op): 4.142
Rabl5
  Fold Change (Pre- to Post-op): 4.448
Rbp1
  Fold Change (Pre- to Post-op): 4.364
Rilpl2
  Fold Change (Pre- to Post-op): 4.235
Rpl34
  Fold Change (Pre- to Post-op): 4.37
Rps15a-ps4
  Fold Change (Pre- to Post-op): 4.372
Rps24
  Fold Change (Pre- to Post-op): 4.131
Rps25
  Fold Change (Pre- to Post-op): 4.218
S100a6
  Fold Change (Pre- to Post-op): 4.237
Sec22a
  Fold Change (Pre- to Post-op): 4.221
Sh2d1b1
  Fold Change (Pre- to Post-op): 4.118
Smim4
  Fold Change (Pre- to Post-op): 4.229
Smim6
  Fold Change (Pre- to Post-op): 4.424
Tm6sf1
  Fold Change (Pre- to Post-op): 4.173
Tnfsf11
  Fold Change (Pre- to Post-op): 4.335
Wfdc17
  Fold Change (Pre- to Post-op): 4.382
Zfp433
  Fold Change (Pre- to Post-op): 4.119
Zswim7
  Fold Change (Pre- to Post-op): 4.475
Gene AI414108
  Fold Change (Pre- to Post-op): −9.671
Gene Agap2
  Fold Change (Pre- to Post-op): −9.801
Gene Ankrd52
  Fold Change (Pre- to Post-op): −10.58
Gene Apba1
  Fold Change (Pre- to Post-op): −18.88
Gene Atp1a2
  Fold Change (Pre- to Post-op): −18.47
Gene Atp1b2
  Fold Change (Pre- to Post-op): −18.71
Gene Bcl9l
  Fold Change (Pre- to Post-op): −10.08
Gene Car3
  Fold Change (Pre- to Post-op): −9.901
Gene Chd7
  Fold Change (Pre- to Post-op): −11.26
Gene D830031N03Rik
  Fold Change (Pre- to Post-op): −15.57
Gene Ebf1
  Fold Change (Pre- to Post-op): −10.39
Gene Fgf15
  Fold Change (Pre- to Post-op): −64.61
Gene Flt1
  Fold Change (Pre- to Post-op): −15.79
Gene Fscn1
  Fold Change (Pre- to Post-op): −10.73
Gene Gltscr1
  Fold Change (Pre- to Post-op): −13.3
Gene Irs2
  Fold Change (Pre- to Post-op): −43.6
Gene Ldoc1l
  Fold Change (Pre- to Post-op): −10.25
Gene Leprel1
  Fold Change (Pre- to Post-op): −9.903
Gene Lyst
  Fold Change (Pre- to Post-op): −9.938
Gene Nav2
  Fold Change (Pre- to Post-op): −12.39
Gene Nfix
  Fold Change (Pre- to Post-op): −16.561
Gene Nos1ap
  Fold Change (Pre- to Post-op): −10.38
Gene P2ry4
  Fold Change (Pre- to Post-op): −22.22
Gene Parvb
  Fold Change (Pre- to Post-op): −9.684
Gene Peg3
  Fold Change (Pre- to Post-op): −15.37
Gene Plin1
  Fold Change (Pre- to Post-op): −16.34
Gene Polr2a
  Fold Change (Pre- to Post-op): −18.45
Gene Ptpru
  Fold Change (Pre- to Post-op): −10.01
Gene Rgs9
  Fold Change (Pre- to Post-op): −9.821
Gene Rnf150
  Fold Change (Pre- to Post-op): −20.41
Gene Scd1
  Fold Change (Pre- to Post-op): −20.28
Gene Sema3g
  Fold Change (Pre- to Post-op): −18.02
Gene Shank3
  Fold Change (Pre- to Post-op): −15.22
Gene Soga1
  Fold Change (Pre- to Post-op): −14.4
Gene Spen
  Fold Change (Pre- to Post-op): −14.44
Gene Tenm3
  Fold Change (Pre- to Post-op): −14.72
Gene Tiam1
  Fold Change (Pre- to Post-op): −15.28
Gene Tmem151a
  Fold Change (Pre- to Post-op): −10.06
Gene Tomm6os
  Fold Change (Pre- to Post-op): −12.41
Gene Trerf1
  Fold Change (Pre- to Post-op): −9.926
Gene Trim56
  Fold Change (Pre- to Post-op): −9.711
Gene Ttc28
  Fold Change (Pre- to Post-op): −24.22
Gene Zbed6
  Fold Change (Pre- to Post-op): −9.794
Gene Zfp609
  Fold Change (Pre- to Post-op): −11.22
Small bowel 56 days after ICR
  number of downregulated entities of the 2′-FL signature response: 1,247
